Laboratory results as given in patent publication US8323911B2, “High throughput assay for discovering new inhibitors of the GIRK1/4 channel” (University of South Carolina, priority 2010, dated 2012).
pEC50, pIC50: −log10 of the molar value. Ends that are not written are not given here.

How the values were obtained:
IK,Ach (GIRK1/4 channel) = target: T1, IK,Ach (GIRK1/4 channel) (Mus musculus, UniProt P48545+P63250); experiment: Patch-clamp recording of whole-cell IK,Ach currents in HL-1 cells; format: cell-based
T1 construct: consistent with the expression of GIRK1/4 channels in the HL-1 cells; endogenous in cells; host or cells: HL-1 immortalized cardiac atrial cells
T1 sequence (P63250 1-501): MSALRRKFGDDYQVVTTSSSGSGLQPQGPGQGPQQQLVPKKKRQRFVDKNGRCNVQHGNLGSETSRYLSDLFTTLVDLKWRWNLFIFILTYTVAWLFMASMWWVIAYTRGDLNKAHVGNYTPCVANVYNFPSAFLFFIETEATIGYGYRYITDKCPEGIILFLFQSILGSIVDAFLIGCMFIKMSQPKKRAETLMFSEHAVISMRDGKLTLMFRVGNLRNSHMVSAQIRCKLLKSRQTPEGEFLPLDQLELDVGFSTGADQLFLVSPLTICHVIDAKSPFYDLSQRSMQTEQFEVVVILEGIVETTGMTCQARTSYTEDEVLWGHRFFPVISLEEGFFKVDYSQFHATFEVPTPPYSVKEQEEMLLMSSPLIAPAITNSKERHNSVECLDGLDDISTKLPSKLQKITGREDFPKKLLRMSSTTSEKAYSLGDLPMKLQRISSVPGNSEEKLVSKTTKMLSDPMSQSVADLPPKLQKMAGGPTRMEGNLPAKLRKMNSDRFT
T1 sequence (P48545 1-419): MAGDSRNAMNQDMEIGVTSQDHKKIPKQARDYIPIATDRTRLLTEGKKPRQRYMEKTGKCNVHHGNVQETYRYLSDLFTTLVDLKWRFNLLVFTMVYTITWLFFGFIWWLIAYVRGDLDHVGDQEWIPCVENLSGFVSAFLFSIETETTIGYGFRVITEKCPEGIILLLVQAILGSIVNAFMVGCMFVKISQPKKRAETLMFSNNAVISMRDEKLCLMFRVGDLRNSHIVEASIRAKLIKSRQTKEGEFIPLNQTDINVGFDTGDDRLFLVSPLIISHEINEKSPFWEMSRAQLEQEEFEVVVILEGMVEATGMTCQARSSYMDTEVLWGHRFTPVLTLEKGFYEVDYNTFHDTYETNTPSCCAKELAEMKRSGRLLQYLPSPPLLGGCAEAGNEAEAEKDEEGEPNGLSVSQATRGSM
From the text: A patch-clamp method was used to record the whole-cell IK,Ach using L/M EPC-7 (Adams & List Associates, Great Neck, N.Y.) and Axopatch 200 (Axon Instruments, Sunnyvale, Calif.) amplifiers. The procedures for measuring cardiac K^+ channels have been described in Walsh K B, Zhang J: Neonatal rat cardiac fibroblasts express three types of voltage-gated K^+ channels: regulation of a transient outward current by protein kinase C, Am J Physiol Heart Circ Physiol 2008; 294:H1010-H1017, incorporated by reference herein. Pipettes were made from borosilicate glass capillaries (World Precision Instruments, Sarasota, Fla.) and had resistances of 1 to 2 Mohms when filled with internal solution. All experiments were conducted on isolated, noncoupled HL-1 cells at room temperature (22-24° C.). For the measurement of IK,Ach, cells were placed in a normal Tyrode's solution consisting of 132 mM NaCl, 5 mM KCl, 1 mM CaCl2, 1 mM MgCl2, 5 mM dextrose, and 5 mM HEPES (pH 7.4; with NaOH) (280 mOsm). INa was blocked with tetrodotoxin (10 μM) and the Na^+ channels inactivated by maintaining the myocytes at a holding potential of −40 mV. L-type Ca^2+ channels were blocked with 500 nM nisoldipine. The internal solution was made from 50 mM KCl, 60 mM K^+-glutamate, 2 mM MgCl2, 1 mM CaCl2, 11 mM EGTA, 3 mM adenosine triphosphate (ATP), and 10 mM HEPES (pH 7.3; with KOH) (280 mOsm).
Membrane currents were recorded with 12-bit analog/digital converters (Axon Instruments). Data were sampled at 5 KHz and filtered at 1 KHz with a low-pass Bessel filter (Frequency Devices, Ottawa, Ill.). Series resistance was compensated to give the fastest possible capacity transient without producing oscillations. With this procedure, more than 70% of the series resistance could be compensated. Following the measurement of the HL-1 cell background current, IK,Ach was activated by the addition 10 μM carbachol using a rapid perfusion system. IK,Ach was defined as the BaCl2-sensitive current (see FIGS. 1A-1C, illustrating expression of GIRK1/4 channels in HL-1 cells). IK,Ach blockers were added and inhibition determined immediately after carbachol-induced activation. This limited errors in quantifying drug block due to GIRK1/4 channel desensitization and rundown. Averaged current values presented are means±SE.

GIRK1/4 channel = target: T2, GIRK1/4 channel (Mus musculus, UniProt P48545+P63250); experiment: GIRK1/4 channel FLIPR assay (DiBAC4(3) fluorescence, carbachol-stimulated HL-1 cells); format: cell-based; conditions: for pIC50: 5 min pretreatment, read-out: IC50 for drug block of the carbachol signal; for inhibition of the carbachol signal during pretreatment: 1 μM; for block of the carbachol-sensitive fluorescence signal: at the concentrations tested
T2 construct: consistent with the expression of GIRK1/4 channels in the HL-1 cells; endogenous in cells; host or cells: HL-1 immortalized cardiac atrial cells
T2 sequence (P63250 1-501): T1 sequence (P63250 1-501)
T2 sequence (P48545 1-419): T1 sequence (P48545 1-419)
Protocol: HL-1 cells were incubated for 1 h in Tyrode's solution containing 5 μM DiBAC4(3) (AnaSpec, Fremont, Calif.) and fluorescent signals recorded using a Synergy2 microplate reader (BioTek, Winosski, Vt.) at 28° C. Test compounds were dissolved in DMSO at a stock concentration of 10 mM, diluted to various concentrations, and applied to the cells for 5 min prior to the fluorescent measurements. DiBAC4(3) was present in all experimental solutions. DMSO, up to 1% in Tyrode's solution, had no adverse effects on the cell response. Carbachol or control solution (20 μL) was added to each well (total volume=220 μL) at time zero using the Synergy2 injector system. Data points were collected at 10-s intervals over a 300-s sampling period at excitation and emission wavelengths of 480 and 520 nm, respectively. Positive (carbachol or carbachol+1 mM BaCl2) and negative (water or DMSO) control experiments were performed to calculate Z′ factors. The Z′ factor is defined as Z′=1=−(3σP+3σN)/|μP−μN|, where μP and μN are the means of the positive control and negative control signals, and σp and σN are the standard deviations of the positive control and negative control signals, respectively. Plates used for Z′ factor determination contained 2 rows each of positive and negative controls. Dose-response curves for selected compounds were obtained and drug potencies determined by fitting the data with the following curve: Max/(1+([drug]/IC50)^k), where the IC50 is the concentration of the compound producing a 50% decrease in the maximal carbachol response (Max), and k is the slope factor. Interference of the test compounds with the DiBAC4(3) fluorescence was determined in the absence of cells by adding various concentrations of the compounds to Tyrode's solution containing the dye.

GIRK channels = conditions: HEK-293 cells; cited from earlier work
IK,Ach = conditions: patch clamp analysis; read-out: IC50 measured in primary cultures of guinea pig atrial myocytes; cited from earlier work

Q: Which results are given for [Ba+2].[Cl-].[Cl-] [BaCl2]?
A: block of carbachol-activated inward rectifying current (IK,Ach (GIRK1/4 channel); 0.5 mM BaCl2): completely blocked; block of the carbachol signal (GIRK1/4 channel; 1 mM): blocked

Q: With N/C(=N\C(=O)c1nc(Cl)c(N)nc1N)NCc1ccc(Cl)c(Cl)c1 [DCB, dichlorobenzamil] as the compound, how does the pIC50 (GIRK1/4 channel; HL-1 cells, DiBAC4(3)) read?
A: 4.70

Q: With CCN(c1nc(N)c(C(=O)N=C(N)N)nc1Cl)C(C)C [EIPA, 5-(N-ethyl-N-isopropyl)-amiloride] as the compound, how does the pIC50 (GIRK1/4 channel; HL-1 cells, DiBAC4(3)) read?
A: 6.10

Q: With NC(N)=NC(=O)c1nc(Cl)c(N2CCCCCC2)nc1N [HMA, 5-(N,N-hexamethylene)-amiloride] as the compound, how does the pIC50 (GIRK1/4 channel; HL-1 cells, DiBAC4(3)) read?
A: 6.05

Q: With CC(C)N(C)c1nc(N)c(C(=O)N=C(N)N)nc1Cl [MIBA, 5-(N-methyl-N-isopropyl)-amiloride] as the compound, how does the pIC50 (GIRK1/4 channel; HL-1 cells, DiBAC4(3)) read?
A: 5.70

Q: With COc1ccc(CC(=O)Nc2cc3c(cc2[N+](=O)[O-])OC(C)(C)[C@H](O)[C@H]3NC2CC2)cc1 [NIP-142] as the compound, how does the “concentrations blocking GIRK channels” value (GIRK channels) read?
A: nanomolar concentrations

Q: With CC(C)(C)NCC(O)COc1ccccc1C(=O)CCc1ccccc1 (centres unmarked) [TBPP, 1-{2-[3-(tert-butylamino)-2-hydroxypropoxy]phenyl}-3-phenyl-1-propanone] as the compound, how does the pIC50 (GIRK1/4 channel; HL-1 cells, DiBAC4(3)) read?
A: 5.70

Q: Which “block of the carbachol-sensitive signal” value (GIRK1/4 channel; concentrations up to 100 μM) does the source give for N=C(N)NC(=O)c1nc(Cl)c(N)nc1N [amiloride] here?
A: only a partial block

Q: Which “inhibition of the carbachol signal during pretreatment” value (GIRK1/4 channel) does the source give for CN1[C@@H]2CC[C@H]1C[C@@H](OC(=O)C(CO)c1ccccc1)C2 (some centres unmarked) [atropine] here?
A: inhibited

Q: With NC(=NCc1ccccc1)NC(=O)c1nc(Cl)c(N)nc1N [benzamil] as the compound, how does the pIC50 (GIRK1/4 channel; HL-1 cells, DiBAC4(3)) read?
A: 4.89

Q: For C[N+](C)(C)CCOC(N)=O [carbachol], which “peak carbachol-induced fluorescent signal (F/FO)” value (GIRK1/4 channel; 10 μM carbachol, mean±SD, 4 plates) is on record?
A: 0.956±0.008

Q: What about the pEC50 (GIRK1/4 channel; HL-1 cells, DiBAC4(3), read-out: EC50 for the carbachol-sensitive fluorescent signal (activation of GIRK1/4 channel)) of the same compound?
A: 6.96

Q: And the “carbachol-mediated decrease in the fluorescent signal” value (GIRK1/4 channel; [K]o increased to 20 mM)?
A: completely eliminated

Q: And the “fold increase in the carbachol-sensitive signal” value (GIRK1/4 channel; extracellular K+ reduced from 5 mM to 1 mM, 3 plates)?
A: 2.0±0.1 fold

Q: With O=C(NCC1CCCCN1)c1cc(OCC(F)(F)F)ccc1OCC(F)(F)F (centres unmarked) [flecainide] as the compound, how does the “block of IK,Ach current” value (IK,Ach (GIRK1/4 channel); 100 μM) read?
A: strongly blocked

Q: And the pIC50 (GIRK1/4 channel; HL-1 cells, DiBAC4(3))?
A: 4.25

Q: And the pIC50 (IK,Ach)?
A: 4.70

Q: With COc1ccc(Cl)cc1C(=O)NCCc1ccc(S(=O)(=O)NC(=O)NC2CCCCC2)cc1 [glybenclamide] as the compound, how does the “block of the carbachol-sensitive fluorescence signal” value (GIRK1/4 channel) read?
A: no block

Q: With CCCCCCCN(CC)CCCC(O)c1ccc(NS(C)(=O)=O)cc1 (centres unmarked) [ibutilide] as the compound, how does the pIC50 (GIRK1/4 channel; HL-1 cells, DiBAC4(3)) read?
A: 4.80

Q: With NC(=Nc1ccccc1)NC(=O)c1nc(Cl)c(N)nc1N [phenamil] as the compound, how does the pIC50 (GIRK1/4 channel; HL-1 cells, DiBAC4(3)) read?
A: 4.89

Q: With CCN(CC)CCNC(=O)c1ccc(N)cc1 [procainamide] as the compound, how does the “block of the carbachol-sensitive fluorescence signal” value (GIRK1/4 channel) read?
A: no block

Q: Which results are given for CCCNCC(O)COc1ccccc1C(=O)CCc1ccccc1 (centres unmarked) [propafenone]?
A: pIC50 (IK,Ach (GIRK1/4 channel); patch clamp, measured at −100 mV, 10 μM carbachol, read-out: IC50 for block of IK,Ach current): 5.70; pIC50 (GIRK1/4 channel; HL-1 cells, DiBAC4(3)): 5.52

Q: With C=C[C@H]1C[N@@]2CC[C@H]1C[C@@H]2[C@@H](O)c1ccnc2ccc(OC)cc12 [quinidine] as the compound, how does the pIC50 (GIRK1/4 channel; HL-1 cells, DiBAC4(3)) read?
A: 4.62

Q: With CN1[C@@H]2C[C@@H](OC(=O)[C@H](CO)c3ccccc3)C[C@H]1[C@@H]1O[C@@H]12 [scopolamine] as the compound, how does the “inhibition of the carbachol signal during pretreatment” value (GIRK1/4 channel) read?
A: inhibited

Q: With CC(C)NCC(O)c1ccc(NS(C)(=O)=O)cc1 (centres unmarked) [sotalol] as the compound, how does the “block of the carbachol-sensitive fluorescence signal” value (GIRK1/4 channel) read?
A: no block

Q: For “[5-(2-methyl-5-fluorophenyl)furan-2-ylcarbonyl]guanidine [KR-32568]”, which “change in the carbachol-sensitive fluorescence” value (GIRK1/4 channel; drug concentrations up to 1 μM) is on record?
A: no significant change

Q: With “tertiapin (ALCNCNRIIIPHMCWKKCGKK; ends and bridges not checked; cysteine pairing not given here; UniProt P56587 1-21, looked up) [Kir toxin]” as the compound, how does the “block of IK,Ach current” value (IK,Ach (GIRK1/4 channel); 100 nM) read?
A: strongly blocked
